The source of these data is patent US20140288040A1, “SUBSTITUTED BENZYLAMINE COMPOUNDS, THEIR USE IN MEDICINE, AND IN PARTICULAR THE TREATMENT OF HEPATITIS C VIRUS (HCV) INFECTION” (ASTEX THERAPEUTICS LIMITED, priority 2011, published 2014).

Structures can show the parent of a compound that is named as a salt. Where two headings read alike, the source gives them in different places.

In this assay the target is T1, HCV NS3 protease (full length NS34a) (Hepatitis C virus genotype 1b, UniProt P26663).
T1 construct: The protease activity of the full length NS34a was measured using a FRET-based assay; made in house
T1 sequence (P26663 1658-1711): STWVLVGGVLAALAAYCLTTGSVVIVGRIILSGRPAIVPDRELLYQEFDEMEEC
T1 sequence (P26663 1027-1657): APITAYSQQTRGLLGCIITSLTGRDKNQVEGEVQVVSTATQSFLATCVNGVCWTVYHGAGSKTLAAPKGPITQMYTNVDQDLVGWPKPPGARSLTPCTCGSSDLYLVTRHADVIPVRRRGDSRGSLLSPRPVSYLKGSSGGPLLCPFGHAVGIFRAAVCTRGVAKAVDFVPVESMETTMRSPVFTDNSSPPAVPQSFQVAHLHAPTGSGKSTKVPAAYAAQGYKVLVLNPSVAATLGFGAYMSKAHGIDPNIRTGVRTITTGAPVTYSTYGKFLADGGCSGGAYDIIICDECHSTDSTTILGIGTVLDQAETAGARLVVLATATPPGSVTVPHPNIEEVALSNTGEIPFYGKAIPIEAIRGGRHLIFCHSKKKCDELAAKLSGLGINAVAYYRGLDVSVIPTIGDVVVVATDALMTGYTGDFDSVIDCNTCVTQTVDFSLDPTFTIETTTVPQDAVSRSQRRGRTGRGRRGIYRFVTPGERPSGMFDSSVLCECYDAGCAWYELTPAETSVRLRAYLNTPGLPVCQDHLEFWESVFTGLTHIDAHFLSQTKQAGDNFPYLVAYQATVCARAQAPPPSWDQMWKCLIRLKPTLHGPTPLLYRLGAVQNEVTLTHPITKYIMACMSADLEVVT
Kind of assay: HCV NS3 protease assay (FRET, full length NS34a). Type of assay: biochemical. The procedure: The HCV NS3 protease functions have been extensively studied and are considered as potential targets for antiviral therapy: see for example the many references listed in the introductory section of this application. Therefore, the activity of the compounds of the invention as anti-HCV agents was assessed using a full length HCV NS3 protease.
The protease activity of the full length NS34a was measured using a FRET-based assay utilizing a peptide substrate derived from the NS4AB cleavage site (Anaspec) and labelled at one end with a quencher (QXL520) and at the other with a fluorophore (5-FAMsp). NS34a (produced in-house by literature methods) was incubated with test compounds and peptide substrate in 50 mM Tris pH8, 20 mM DTT, 1% CHAPS, 10% glycerol and 5% DMSO. The reaction was followed by monitoring the change in fluorescence on a Molecular Devices Gemini plate reader for 30 minutes at room temperature. Initial rates were calculated from the progress curves using SoftMax Pro (Molecular Devices). IC50 values were then calculated from replicate curves using Prism GraphPad software.

The mark [1] stands for this setting: IC50 values of 10-150 μM against the protease activity of the full length NS34a, or at least 40% inhibition of protease activity at a concentration of 100 μM.
Where [2] appears, read: protease activity of full length NS34a, FRET peptide substrate, read-out: Activity IC50.

For the compound `CC[C@@H](N[C@H](C)c1ccc[nH]c1=O)c1ccc(Cl)c(Oc2ccccc2)c1F` (single isomer, unassigned) [Example 314], the IC50 under setting [1] was 10 to 150 µM.

Turning to `CC[C@@H](N)c1ccc(Cl)c(Oc2cccc([N+](=O)[O-])c2)c1F` [Example 152], the IC50 under setting [2] was 6.9 µM.

With `CC[C@@H](N)c1ccc(Cl)c(Oc2ccc3c(c2)C(C)(C)CN3)c1F` [Example 270], under setting [2], the IC50 was 1.6 µM.

On to `N[C@H](CCO)c1ccc(Cl)c(Oc2ccccc2)c1F` [Example 343], for which the half-maximal inhibitory concentration (IC50) under setting [2] turned out to be 6.3 µM.

`C[C@H](CC(N)=O)N[C@H](c1ccc(Cl)c(Oc2ccccc2)c1F)C1CCOCC1` [Example 348]: the concentration for half-maximal inhibition (IC50) under setting [2] was 10 µM.

With `CCC(NCCOC)c1ccc(F)c(Oc2ccccc2)c1F` (stereo not drawn) [Example 42, [1-(2,4-Difluoro-3-phenoxy-phenyl)-propyl]-(2-methoxy-ethyl)-amine. hydrochloride], under setting [1], the 50% inhibitory concentration (IC50) is 10 to 150 µM.

On to `CC[C@@H](N)c1ccc(Cl)c(Oc2ccc(CNC(C)=O)cc2)c1F` [Example 198], for which, under setting [2], the IC50 turned out to be 1.6 µM.

For the compound `CC[C@@H](N)c1ccc(Cl)c(Oc2cccc(CNS(C)(=O)=O)c2)c1F` [Example 157], the IC50 under setting [2] stood at 2.1 µM.

As to `C[C@@H](CC(N)=O)N[C@@H](CCO)c1ccc(Cl)c(Oc2ccccc2)c1F` [Example 350], the concentration for half-maximal inhibition (IC50) under setting [2] was 2.6 µM.

The compound `CC[C@@H](N[C@H](C)CC(N)=O)c1ccc(Cl)c(Oc2cccc(CO)c2)c1F` [Example 117] came in with an IC50 under setting [1] of 10 to 150 µM.

Compound `CC[C@@H](N[C@H](C)CC(N)=O)c1ccc(Cl)c(Oc2ccc(N)c(C(F)(F)F)c2)c1F` [Example 259] yielded an IC50 under setting [1] of 10 to 150 µM.

For `NC(=O)C[C@@H](N)c1ccc(Cl)c(Oc2ccccc2)c1F` [Example 354], the IC50 under setting [1] was 10 to 150 µM.

`CC[C@@H](N[C@H](C)CC(=O)N[C@@H](C)CO)c1ccc(Cl)c(Oc2ccccc2)c1F` [Example 205] gave a 50% inhibitory concentration (IC50) under setting [1] of 10 to 150 µM.

For `C[C@@H](CC(N)=O)N[C@H](CCO)c1ccc(Cl)c(Oc2ccccc2)c1F` [Example 358], the half-inhibitory concentration (IC50) under setting [2] was 0.91 µM.

In turn, `CC[C@@H](N[C@H](C)CC(=O)NC)c1ccc(Cl)c(Oc2ccccc2)c1F` [Example 131B, (R)-3-[(R)-1-(4-Chloro-2-fluoro-3-phenoxy-phenyl)-propylamino]-N-methyl-butyramide. hydrochloride] registered an IC50 under setting [1] of 10 to 150 µM.

For `CC[C@@H](N[C@H](C)CC(=O)NCC(=O)OC)c1ccc(Cl)c(Oc2ccccc2)c1F` [Example 308], the IC50 under setting [1] lay within 10 to 150 µM.

In the case of `CC[C@H](Nc1cccc2c1CNC2)c1ccc(F)c(Oc2ccccc2)c1F` [Example 136, [(S)-1-(2,4-Difluoro-3-phenoxy-phenyl)-propyl]-(2,3-dihydro-1H-isoindol-4-yl)-amine.hydrochloride], the IC50 under setting [2] worked out at 1.1 µM.

On to `CC[C@@H](N)c1ccc(Cl)c(Oc2cccc(S(C)(=O)=O)c2)c1F` [Example 170], for which the IC50 under setting [2] is 2.3 µM.

Regarding `C=CCNC(CC)c1ccc(F)c(Oc2ccccc2)c1F` (stereo not drawn) [Example 39, Allyl-[1-(2,4-difluoro-3-phenoxy-phenyl)-propyl]-amine. hydrochloride], the IC50 under setting [1] lay within 10 to 150 µM.

Under setting [1], `CC[C@@H](N)c1ccc(Cl)c(Oc2ccc(C(F)(F)F)cc2)c1F` [Example 175] returned a concentration for half-maximal inhibition (IC50) of 10 to 150 µM.

`CC[C@@H](N)c1ccc(Cl)c(Oc2cccc(CNC(C)=O)c2)c1F` [Example 173]: under setting [2], the IC50 was 3.5 µM.

Turning to `CC[C@@H](N)c1ccc(Cl)c(Oc2ccc(C#N)cc2)c1F` [Example 158], the concentration for half-maximal inhibition (IC50) under setting [2] is 0.42 µM.

As for `CC[C@@H](N)c1ccc(Cl)c(Oc2cccc(F)c2)c1F` [Example 149], under setting [2], the 50% inhibitory concentration (IC50) worked out at 3 µM.

As to `C[C@H](CC(=O)NCCN)N[C@H](C)c1ccc(Cl)c(Oc2ccccc2)c1F` [Example 340], the half-maximal inhibitory concentration (IC50) under setting [2] turned out to be 0.08 µM.

Turning to `CC[C@@H](N)c1ccc(Cl)c(Oc2ccc(F)c(COC(=O)NCC3CC3)c2)c1F` [Example 190, Cyclopropylmethyl-carbamic acid 5-[3-((R)-1-amino-propyl)-6-chloro-2-fluoro-phenoxy]-2-fluoro-benzyl ester.hydrochloride], the IC50 under setting [2] was determined as 1.8 µM.

In the case of `CC[C@@H](N[C@H](C)CC(N)=O)c1ccc(Cl)c(Oc2ccc3c(c2)C(C)(C)CN3)c1F` [Example 323], under setting [2], the IC50 amounted to 3.1 µM.

Take `CC[C@@H](N)c1ccc(Cl)c(Oc2ccc(C3(CO)CC3)cc2)c1F` [Example 194]: under setting [2], the concentration for half-maximal inhibition (IC50) came to 3.1 µM.

Under setting [1], `CCC(NC(C)C1CC1)c1ccc(F)c(Oc2ccccc2)c1F` (stereo not drawn) [Example 36] gave a concentration for half-maximal inhibition (IC50) of 10 to 150 µM.

Take `CS(=O)(=O)Nc1cccc(Oc2c(F)ccc(C(N)CC3CCNCC3)c2F)c1` (stereo not drawn) [Example 108B, N-{3-[3-(1-Amino-2-piperidin-4-yl-ethyl)-2,6-difluoro-phenoxy]-phenyl}-methane-sulfonamide.dihydrochloride]: the IC50 under setting [2] is 1.9 µM.

`CC[C@@H](N[C@@H](C)C(N)=O)c1ccc(Cl)c(Oc2ccccc2)c1F` [Example 54, (S)-2-[(R)-1-(4-Chloro-2-fluoro-3-phenoxy-phenyl)-propylamino]-propionamide hydrochloride]: the IC50 under setting [2] came to 1.4 µM.

For `CC[C@@H](N[C@H](C)CC(N)=O)c1ccc(Cl)c(Oc2ccc3c(c2)OCC3)c1F` [Example 232], the half-inhibitory concentration (IC50) under setting [2] was 1.8 µM.

For the compound `CC[C@@H](N)c1ccc(Cl)c(Oc2ccc3c(c2)CCO3)c1F` [Example 193], the half-inhibitory concentration (IC50) under setting [2] is 0.96 µM.

Regarding `C[C@H](CC(=O)NCCN)N[C@H](CC1CCOCC1)c1ccc(Cl)c(Oc2ccccc2)c1F` [Example 278], under setting [2], the IC50 was found to be 3.9 µM.

Consider `CCC(NCc1cnc[nH]1)c1ccc(F)c(Oc2ccccc2)c1F` (stereo not drawn) [Example 37], for which the IC50 under setting [2] was 5.6 µM.

The compound `CC[C@@H](N[C@@H](C)CC(N)=O)c1ccc(Cl)c(Oc2ccc(F)cc2N)c1F` [Example 334] showed an IC50 under setting [1] of 10 to 150 µM.

`CCC(NC(C)COC)c1ccc(F)c(Oc2ccccc2)c1F` (stereo not drawn) [Example 51] came in with an IC50 under setting [1] of 10 to 150 µM.

`NC(c1cccnc1)c1ccc(F)c(Oc2ccccc2)c1F` (stereo not drawn) [Example 59A, C-(2,4-Difluoro-3-phenoxy-phenyl)-C-pyridin-3-yl-methylamine. dihydrochloride]: the IC50 under setting [1] was in the range of 10 to 150 µM.

Consider `C[C@H](CC(N)=O)N[C@@H](CC1CCNCC1)c1ccc(F)c(Oc2ccccc2)c1F` [Example 99], for which the half-maximal inhibitory concentration (IC50) under setting [1] is 10 to 150 µM.

On to `N[C@@H](CCO)c1ccc(Cl)c(Oc2ccccc2)c1F` [Example 338, 3-Amino-3-(4-chloro-2-fluoro-3-phenoxy-phenyl)-propan-1-ol.hydrochloride], for which, under setting [2], the IC50 worked out at 2 µM.

Turning to `N[C@H](CCF)c1ccc(Cl)c(Oc2ccccc2)c1F` [Example 357, (R)-1-(4-Chloro-2-fluoro-3-phenoxy-phenyl)-3-fluoro-propylamine.hydrochloride], under setting [2], the concentration for half-maximal inhibition (IC50) stood at 5.7 µM.

For `CC[C@@H](N[C@H](C)CC(=O)N[C@H](C)CO)c1ccc(Cl)c(Oc2ccccc2)c1F` [Example 208], the IC50 under setting [2] was determined as 3.4 µM.

`CC[C@@H](N)c1ccc(Cl)c(Oc2cccc(C(=O)NCCC#N)c2)c1F` [Example 191] gave a half-maximal inhibitory concentration (IC50) under setting [1] of 10 to 150 µM.

As to `CCNC(=O)O[C@H](C)c1cccc(Oc2c(Cl)ccc([C@@H](N)CC)c2F)c1` [Example 139, Ethyl-carbamic acid (R)-1-{3-[3-((S)-1-amino-propyl)-6-chloro-2-fluoro-phenoxy]-phenyl}-ethyl ester.hydrochloride], the IC50 under setting [2] came out at 1.3 µM.

Take `C[C@H](CC(N)=O)N[C@H](CCO)c1ccc(Cl)c(Oc2ccccc2)c1F` [Example 353]: the IC50 under setting [1] lay in the range of 10 to 150 µM.

`C[C@H](CC(=O)NCCN)N[C@@H](CC1CCOCC1)c1ccc(Cl)c(Oc2ccccc2)c1F` [Example 351]: the IC50 under setting [2] is 6.4 µM.

As for `CC[C@@H](N)c1ccc(Cl)c(Oc2ccc(F)cc2)c1F` [Example 150], the IC50 under setting [2] was determined as 2 µM.

As to `CC[C@@H](N)c1ccc(Cl)c(Oc2ccc(C(C)O)cc2)c1F` (stereo partly drawn) [Example 188], under setting [2], the concentration for half-maximal inhibition (IC50) is 2.7 µM.

`CC[C@@H](N)c1ccc(Cl)c(Oc2ccc(F)c(C(N)=O)c2)c1F` [Example 227, 5-[3-((R)-1-Amino-propyl)-6-chloro-2-fluoro-phenoxy]-2-fluoro-benzamide (R isomer).hydrochloride]: under setting [2], the concentration for half-maximal inhibition (IC50) was determined as 2.2 µM.

Take `C=CCN[C@@H](CC)c1ccc(F)c(Oc2ccccc2)c1F` [Example 102, Allyl-[(S)-1-(2,4-difluoro-3-phenoxy-phenyl)-propyl]-amine.hydrochloride]: the IC50 under setting [1] was in the range of 10 to 150 µM.

With `C[C@@H](CC(=O)NCCN)N[C@@H](CC1CCOCC1)c1ccc(Cl)c(Oc2ccccc2)c1F` [Example 352], the IC50 under setting [2] was 0.32 µM.

`CC[C@@H](N)c1ccc(Cl)c(Oc2ccnc(C)c2)c1F` [Example 168]: the IC50 under setting [2] was 3.7 µM.

Consider `CC[C@H](CC(N)=O)N[C@H](CC)c1ccc(Cl)c(Oc2ccccc2)c1F` [Example 135], for which, under setting [2], the half-maximal inhibitory concentration (IC50) came to 9.7 µM.

Turning to `CCC(CC)[C@@H](N)c1ccc(Cl)c(Oc2ccccc2)c1F` [Example 346], the IC50 under setting [2] was 5 µM.

`CC[C@@H](N[C@H](C)CC(N)=O)c1ccc(Cl)c(Oc2cccc(CNS(C)(=O)=O)c2)c1F` [Example 217] returned an IC50 under setting [1] of 10 to 150 µM.

With `CCNC(=O)O[C@@H](C)c1cccc(Oc2c(Cl)ccc([C@@H](N)CC)c2F)c1` [Example 140], under setting [2], the half-maximal inhibitory concentration (IC50) amounted to 1.3 µM.

The compound `NCCC(N)c1ccc(F)c(Oc2ccccc2)c1F` (stereo not drawn) [Example 94] returned a concentration for half-maximal inhibition (IC50) under setting [1] of 10 to 150 µM.

For the compound `CC[C@@H](N)c1ccc(Cl)c(Oc2cccc(NS(C)(=O)=O)c2)c1F` [Example 151], the half-inhibitory concentration (IC50) under setting [2] was 3.1 µM.

One may read the IC50 as the midpoint of a concentration-inhibition curve.
